Measured values as given in publication PMC8619914, “Development of Novel Peptides for the Antimicrobial Combination Therapy against Carbapenem-Resistant Acinetobacter baumannii Infection” (Pharmaceutics, 2021).
≈ marks a conversion by molar mass, not a printed value. Like-named read-outs stand apart in the source and are kept apart here. Where no end group is shown, it is not given here.

How the values were obtained:
[1] = test system: Gram-negative bacterial strains; test: organism not typed
Source text: (§1) The Gram-negative bacterial strain Escherichia coli (KCTC 1682) and Gram-positive bacterial strain Staphylococcus aureus (KCTC 1621) were purchased from the Korean Collection for Type Cultures (Jeongeup, Korea). Acinetobacter baumannii (KCCM 40203) were purchased from Korea Culture Center of Microorganisms (Seoul, Korea). Additionally, five carbapenem-resistant Acinetobacter baumanii C1–C5 (CRAB C1–C5), which have the OXA-23 gene with carbapenem-resistance were collected from the patients with CRAB bacteremia, who presented symptoms and signs of infection at Korea University Anam Hospital (Seoul, Korea) (IRB registration no. 2020AN0157). The minimum inhibitory concentrations (MIC) of the AMP and antibiotics against the various bacterial strains were assessed using the serial dilution method on Muller–Hinton (MH) media, as described previously. […] Absorbance at 600 nm was measured using a SpectraMAX microplate reader (Molecular Devices, San Jose, CA, USA).
Geometric means (GM) were calculated to compare the relative antimicrobial activities of the analogs against Gram-negative bacteria. […] Next, the antibacterial mechanisms of peptides were investigated.

[2] = test system: Staphylococcus aureus (KCTC 1621); test: microbe, parasite or virus in culture
Source text: as §1
(§2) Measurement of the minimum inhibitory concentrations (MIC) was conducted to determine the effect of the hydrophobicity of each antimicrobial peptide on its antimicrobial activity. MIC was defined as the minimum concentration that killed more than 99% of bacteria; it was measured against two standard Gram-negative bacteria (E. coli and A. baumanii), five clinically isolated CRAB (C1–C5), and one Gram-positive bacteria (S. aureus).

[3] = test system: Acinetobacter baumannii (KCCM 40203); test: microbe, parasite or virus in culture
Source text: as §1, §2

CRAB C5 [4] = test: microbe, parasite or virus in culture; settings: 16 h
Source text: as §1, §2

CRAB C3 [5] = test: microbe, parasite or virus in culture; settings: 16 h
Source text: as §1, §2

CRAB C2 [6] = test: microbe, parasite or virus in culture; settings: 16 h
Source text: as §1, §2

CRAB C4 [7] = test: microbe, parasite or virus in culture; settings: 16 h
Source text: as §1, §2

CRAB C1 [8] = test: microbe, parasite or virus in culture; settings: 16 h
Source text: as §1, §2

[9] = test system: Escherichia coli (KCTC 1682); test: microbe, parasite or virus in culture
Source text: as §1, §2

CRAB C1 [10] = test: FE-SEM of membrane damage; format: cell-based, carbapenem-resistant Acinetobacter baumannii; settings: erythromycin 128 μg·mL^−1 alone, 1 h and 2 h
Experimental: The cells were washed using PBS, fixed in 1% osmium tetroxide for 1 h, and dehydrated using a graded ethanol series. After dehydration, ethanol contents in the sample were replaced with varying ratio (2:1, 1:1, 1:2, 0:1 v/v) of ethanol–isoamyl acetate mixture. The cells were fixed on a glass slide with hexamethyldisilzane, dried under reduced pressure, and platinum-coated; they were visualized using an FE-SEM (SU8020; Hitachi, Tokyo, Japan).
Figure 7 FE-SEM images of CRAB C1 treated with PapMA-3. (A) Only CRAB C1. […] (F–I) same experiments after incubation for 1 h, respectively.

CRAB C1 biofilm = test: Biofilm inhibition, crystal violet; format: cell-based, carbapenem-resistant Acinetobacter baumannii; settings: Acinetobacter baumannii; 32 μg·mL^−1, CRAB C1, compared to the control; read-out: percentage of biofilm inhibition
Experimental: CRAB C1 cells (2 × 10^5 CFU·mL^−^1) were incubated with PapMA-3 and antibiotics in a tissue-culture well plate in MH medium containing 0.2% glucose for 16 h at 37 °C. The cells were stained with 0.1% (w/v) crystal violet in 0.25% (v/v) acetic acid for 1 h at room temperature; the dye complex was dissolved with ethanol. Absorbance at 595 nm was measured using SpectraMAX microplate reader (Molecular Devices) to quantify the biofilm formation.
Biofilms were quantified by staining with crystal violet. (A) Absorbance of crystal violet-stained biofilms with treatment of PapMA-3 and antibiotics at a concentration range of 32 to 512 μg·mL^−1, assessed at 595 nm. […] CRAB C1 without peptides or antibiotics served as the control (red). Statistical analysis was performed using two-way ANOVA with Dunnett’s comparison test. The values are expressed as the mean ± SEM of three independent experiments and are statistically significant at ** p < 0.01 and *** p < 0.001. ns, not significant.

CRAB C5 [11] = test: microbe, parasite or virus in culture; settings: 16 h; remark: listed apart in the source
Experimental: (§3) The synergistic effects of AMPs and antibiotics were measured using checkerboard assays. Serial dilutions of PapMA-3 and antibiotics were performed from 1 to […] of the MIC. Samples were then cross-mixed and cultured in MH medium with 2 × 10^5 CFU·ml^−^1 bacteria. Results were recorded after 16 h of incubation at 37 °C. The fractional inhibitory concentration index (FICI) was calculated according to the European Committee on Antimicrobial Susceptibility (EUCAST).
(§4) The ability of PapMA-3 to facilitate these antibiotics in penetrating the bacterial membranes of Gram-negative bacteria was investigated.

CRAB C3 [12] = test: microbe, parasite or virus in culture; settings: 16 h; remark: listed apart in the source
Experimental: as §3, §4

CRAB C2 [13] = test: microbe, parasite or virus in culture; settings: 16 h; remark: listed apart in the source
Experimental: as §3, §4

CRAB C4 [14] = test: microbe, parasite or virus in culture; settings: 16 h; remark: listed apart in the source
Experimental: as §3, §4

CRAB C1 [15] = test: microbe, parasite or virus in culture; settings: 16 h; remark: listed apart in the source
Experimental: as §3, §4

HEK-293 cells = test: Cytotoxicity, WST-8 Cell Proliferation Assay; format: cell-based, human; settings: 64 μg·mL^−1, 24 h, WST-8
Experimental: (§5) Human embryonic kidney (HEK)-293 cells, purchased from Korean cell line bank (Seoul, Korea) were cultured in Dulbecco’s modified Eagle’s medium (DMEM) (Welgene, Gyeong-san, Korea) with 10% fetal bovine serum, 1% penicillin-streptomycin at 37 °C in a humidified 5% CO2 incubator as described previously. The cytotoxicity of the six PapMA peptides and melittin was determined using WST-8 Cell Proliferation Assay Kit (Biomax Co, Ltd., Seoul, Korea), according to the manufacturer’s instructions. […] The absorbance was measured at 450 nm using a SpectraMAX microplate reader (Molecular Devices).
Figure 4 Cytotoxicity of PapMA analogs. (A) Cytotoxicity of PapMA and its analogs against HEK-293 cell. […] (B) Hemolysis activity of PapMA analogs against sRBC. The peptide was serially diluted and incubated with sRBC for 1 h with melittin as a control. Statistical analysis was performed using two-way ANOVA with Dunnett’s comparison test. The values are expressed as the mean ± SEM of three independent experiments and are statistically significant at ** p < 0.01; and *** p < 0.001. ns, not significant.

CRAB C1 [16] = settings: 50% human serum in MH medium, 16 h, 37 °C; measure of serum stability
Experimental: Antibacterial activity of PapMA-3 in combination with imipenem was measured against CRAB C1 in the presence of 50% human serum. The treated cells were incubated for 16 h at 37 °C, and the absorbance at 600 nm was measured using a SpectraMAX microplate reader (Molecular Devices).

HaCaT cells = test: Cytotoxicity, WST-8 Cell Proliferation Assay; format: cell-based, human; settings: 32 μg·mL^−1, 24 h and 48 h, compared to blank control
Experimental: as §5
Figure 10 Cytotoxicity of PapMA-3 (A) Cytotoxicity of PapMA-3 against HEK-293 cells at 24 h and 48 h. (B) Cytotoxicity of PapMA-3 against HaCaT cell at 24 h and 48 h. Statistical analysis was performed using two-way ANOVA with Dunnett’s comparison test. The values are expressed as the mean ± SEM of three independent experiments and are statistically significant at * p < 0.05; *** p < 0.001; ns, not significant.

[17] = MH media, 2 × 10^5 CFU·mL^−1, 37 °C, absorbance 600 nm
[18] = checkerboard table, single agent, MH medium, 37 °C

CC[C@H]1OC(=O)[C@H](C)[C@@H](O[C@H]2C[C@@](C)(OC)[C@@H](O)[C@H](C)O2)[C@H](C)[C@@H](O[C@@H]2O[C@H](C)C[C@H](N(C)C)[C@H]2O)[C@](C)(O)C[C@@H](C)C(=O)[C@H](C)[C@@H](O)[C@]1(C)O [Erythromycin]
MIC ([1]; read-out: GM (mean MIC of Gram-negative bacterial strains)): 592 mg/L | MIC ([2]; Staphylococcus aureus, KCTC1621, 16 h, read-out: Minimum Inhibitory Concentration, S.aureus): 0.25 mg/L (≈ 0.341 µM) | MIC ([3]; Acinetobacter baumannii, KCCM40203, 16 h, read-out: Minimum Inhibitory Concentration, A. baumanii): 32 mg/L (≈ 43.6 µM) | MIC (CRAB C5 [4]; Acinetobacter baumannii, read-out: Minimum Inhibitory Concentration, CRAB C5): > 512 mg/L | MIC (CRAB C3 [5]; Acinetobacter baumannii, read-out: Minimum Inhibitory Concentration, CRAB C3): 512 mg/L (≈ 698 µM) | MIC (CRAB C2 [6]; Acinetobacter baumannii, read-out: Minimum Inhibitory Concentration, CRAB C2): 512 mg/L (≈ 698 µM) | MIC (CRAB C4 [7]; Acinetobacter baumannii, read-out: Minimum Inhibitory Concentration, CRAB C4): > 512 mg/L | MIC (CRAB C1 [8]; Acinetobacter baumannii, read-out: Minimum Inhibitory Concentration, CRAB C1): > 512 mg/L | MIC ([9]; Escherichia coli, KCTC1682, 16 h, read-out: Minimum Inhibitory Concentration, E. coli): 16 mg/L (≈ 21.8 µM) | membrane integrity of CRAB C1 (FE-SEM) (CRAB C1 [10]): not altered | inhibition at 32 µg/mL (CRAB C1 biofilm): 37.7% | MIC (CRAB C5 [11]; Acinetobacter baumannii, read-out: MIC alone, CRAB C5): > 512 mg/L | MIC (CRAB C3 [12]; Acinetobacter baumannii, read-out: MIC alone, CRAB C3): 512 mg/L | MIC (CRAB C2 [13]; Acinetobacter baumannii, read-out: MIC alone, CRAB C2): 512 mg/L | MIC (CRAB C4 [14]; Acinetobacter baumannii, read-out: MIC alone, CRAB C4): > 512 mg/L | MIC (CRAB C1 [15]; Acinetobacter baumannii, read-out: MIC alone, CRAB C1): > 512 mg/L

RWKIFKKIPKFLHSAKKW-NH2 [PapMA-3]
survival rate of HEK-293 cells (HEK-293 cells): 100% | Minimum Inhibitory Concentration, CRAB C1, + Serum (50%) (CRAB C1 [16]): 64 µg/mL | cell proliferation and viability, HaCaT (HaCaT cells): remained unaltered | GM (mean MIC of Gram-negative bacterial strains) ([1]; seven Gram-negative strains, 256 assumed for MIC > 128 and 1024 for MIC > 512 μg·mL^−1): 18 mg/L | Minimum Inhibitory Concentration, S.aureus ([2]; KCTC 1621, 16 h): 32 µg/mL | Minimum Inhibitory Concentration, A. baumanii ([3]; KCCM 40203, 16 h): 16 µg/mL | Minimum Inhibitory Concentration, A. baumannii, MH Media ([3]; KCCM 40203, 16 h): 16 µg/mL | Minimum Inhibitory Concentration, CRAB C5 (CRAB C5 [4]; [17]): 16 µg/mL | Minimum Inhibitory Concentration, CRAB C3 (CRAB C3 [5]; [17]): 16 µg/mL | Minimum Inhibitory Concentration, CRAB C2 (CRAB C2 [6]; [17]): 16 µg/mL | Minimum Inhibitory Concentration, CRAB C4 (CRAB C4 [7]; [17]): 32 µg/mL | Minimum Inhibitory Concentration, CRAB C1, MH Media (CRAB C1 [8]; MH media without serum, 37 °C): 16 µg/mL | Minimum Inhibitory Concentration, CRAB C1 (CRAB C1 [8]; [17]): 16 µg/mL | Minimum Inhibitory Concentration, E. coli, MH Media ([9]; KCTC 1682, 16 h): 16 µg/mL | Minimum Inhibitory Concentration, E. coli ([9]; MH media, 2 × 10^5 CFU·mL^−1, 37 °C, 16 h, absorbance 600 nm, MIC kills more than 99% of bacteria): 16 µg/mL | MIC alone, CRAB C5 (CRAB C5 [11]; [18]): 16 mg/L | MIC alone, CRAB C3 (CRAB C3 [12]; [18]): 16 mg/L | MIC alone, CRAB C2 (CRAB C2 [13]; [18]): 16 mg/L | MIC alone, CRAB C4 (CRAB C4 [14]; [18]): 32 mg/L | MIC alone, CRAB C1 (CRAB C1 [15]; [18]): 16 mg/L
